Target: human EDG-2 (Homo sapiens, UniProt Q92633)
Test: Evaluation of EDG-2 antagonistic activity by monitoring the change of intracellular calcium ion concentration
Assay type: cell-based
Conditions: CHO cells overexpressing human EDG-2 gene; LPA final concentration 100 nM; Fura2-AM intracellular calcium; compound 1 nM to 10 μM
Procedure: Evaluation of EDG-2 Antagonistic Activity by Monitoring the Change of Intracellular Calcium Ion Concentration
Evaluation of EDG-2 antagonistic activity was carried out by using Chinese hamster ovary (CHO) cells which overexpressed human EDG-2 gene. Those cells were cultured with Ham's F12 medium (GIBCO BRL company No.11765-047) containing 10% FBS (fetal bovine serum), penicillin/streptomycin and blasticidin (5 μg/ml). At first in order to uptake Fura2-AM (Dojindo company No.348-05831) into the cells, cells were incubated for 60 minutes at 37 degrees in Fura2-AM (5 μM) solution [Ham's F12 medium containing 10% FBS, 20 mM HEPES buffer (pH 7.4) and 2.5 mM probenecid (Sigma company No.P-8761)]. […] Plates were set in fluorescent drug screening system (Hamamatsu photonics company, FDSS-2000) and intracellular calcium ion concentration was measured for 30 seconds with no stimulation and then solution of the compound of the present invention represented by formula (I) was added. Five minutes after adding thereto LPA (final concentration: 100 nM) was added, the increase of intracellular calcium ion concentrations before and after the addition of LPA (excitation wave length: […]; fluorescent wave length: 500 nm) were measured every 3 seconds. […]

Sequence of human EDG-2 (Q92633 whole entry): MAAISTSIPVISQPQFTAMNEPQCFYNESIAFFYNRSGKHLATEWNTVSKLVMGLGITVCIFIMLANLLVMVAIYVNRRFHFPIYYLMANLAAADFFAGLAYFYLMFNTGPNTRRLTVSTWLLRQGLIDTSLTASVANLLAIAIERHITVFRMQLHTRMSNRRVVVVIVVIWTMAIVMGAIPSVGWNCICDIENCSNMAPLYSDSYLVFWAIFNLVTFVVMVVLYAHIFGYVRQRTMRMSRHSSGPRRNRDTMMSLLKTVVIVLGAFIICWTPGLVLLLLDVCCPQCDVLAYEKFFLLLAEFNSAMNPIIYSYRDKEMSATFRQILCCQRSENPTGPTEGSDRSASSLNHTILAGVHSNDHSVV

SMILES	IC50
COc1ccc(OC)c(CCN(CCC(=O)O)C(=O)c2ccccc2-c2ccccc2C(=O)NCc2cccnc2)c1 [Example 3(1), 3-(N-((2-(2-((pyridin-3-ylmethylamino)carbonyl)phenyl)phenyl)carbonyl)-N-(2-(2,5-dimethoxyphenyl)ethyl)amino)propanoic acid]	780 nM
COc1ccc(OC)c(CCN(CCC(=O)O)C(=O)c2ccccc2-c2ccccc2C(=O)NCc2ccc(Cl)cc2)c1 [Example 3, 3-(N-((2-(2-((4-chlorobenzylamino)carbonyl)phenyl)phenyl)carbonyl)-N-(2-(2,5-dimethoxyphenyl)ethyl)amino)propanoic acid]	410 nM

From patent publication US7285680B2, “β-alanine derivatives and the use thereof” (Ono Pharmaceutical Co., Ltd., priority 2002, dated 2007)
